Assay results published in patent US4495186A, “Organometal complexes of N-cyclohexyl-piperazino acetamides or propionamides, preparation and use thereof as antiulcer-antisecretive-buffering drugs” (Camillo Corvi S.p.A., priority 1982, dated 1985).

Key:
[1] = from U.S. Pat. No. 4,123,530; cited from earlier work
rat = assay: acute toxicity per os, rat; type: in vivo
Source text: (§1) The acute toxicity of the complex salt of dihydroxy-aluminum-gluconate of N-cyclohexyl-piperazino acetamide is checked by the usual pharmacotoxicologic testing on the rat and mouse per os, the results of which are given in the following table.

mouse = assay: acute toxicity per os, mouse; type: in vivo; settings: fiduciary limits (6646.4-5862.2)
Source text: as §1

gastric hyperacidity = assay: buffering activity (neutralizing action for gastric hyperacidity); type: in vivo; settings: rat, os
antisecretive activity = type: in vivo; settings: rat, os
[2] = system: Phenylbutazone + hystamine experimental ulcer; assay: antiulcer activity, phenylbutazone + hystamine ulcer; type: in vivo; settings: rat, os
Source text: (§2) The antiulcer activity has been tested on the rat for different types of experimental ulcer. The obtained therefrom is in Table 2.

[3] = system: Reserpine experimental ulcer; assay: antiulcer activity, reserpine ulcer; type: in vivo; settings: rat, os
Source text: as §2

[4] = system: Immobilization experimental ulcer; assay: antiulcer activity, immobilization ulcer; type: in vivo; settings: rat, os
Source text: as §2

Fast experimental ulcer = assay: antiulcer activity, fast ulcer; type: in vivo; settings: rat, os
Source text: as §2

Shay experimental ulcer = assay: antiulcer activity, Shay ulcer; type: in vivo; settings: rat, i.d.
Source text: as §2

[5] = system: Duodenal from cystamine experimental ulcer; assay: antiulcer activity, duodenal ulcer from cystamine; type: in vivo; settings: rat, i.d.
Source text: as §2

[6] = system: From indomethacin experimental ulcer; assay: antiulcer activity, ulcer from indomethacin; type: in vivo; settings: rat, os
Source text: as §2

[7] = buffering effect, HCl titration in vitro; type: physicochemical; settings: 4.6 g sample in 400 ml 0.015 N HCl, 37° C., 0.1 N HCl at 1 ml/minute; minimum requirement
Method: Buffering effect: to 4.6 g of the sample, in a 1000 ml beaker, 400 ml of 0.015 N HCl are added, while keeping the temperature at 37° C. (thermostat). The pH is measured after 30 minutes, while controlling that it be maintained within 4.8.div.5.0. Then, by means of a burette, 0.1 N HCl is introduced at a rate of 1 ml/minute, to achieve a pH of 3.0. 165 ml of 0.1N HCl must be consumed at the very least.

| Molecule | antisecretive and antiulcer activity [1] | toxicity (rat; rat and mouse per os, overall statement) | LD50 (rat; rat, os, fiduciary limits (8447.4-5264.6)) [mg/kg] | LD50 (mouse) [mg/kg] | ED50 (buffering activity) (gastric hyperacidity) [mg/kg] | ED50 (antisecretive activity) (antisecretive activity) [mg/kg] | ED50 (antiulcer) [2] [mg/kg] | ED50 (antiulcer) [3] [mg/kg] | ED50 (antiulcer) [4] [mg/kg] | ED50 (antiulcer) (Fast experimental ulcer) [mg/kg] | ED50 (antiulcer) (Shay experimental ulcer) [mg/kg] | ED50 (antiulcer) [5] [mg/kg] | ED50 (antiulcer) [6] [mg/kg] | 0.1N HCl consumed to achieve a pH of 3.0 [7] [ml] |
| --- | --- | --- | --- | --- | --- | --- | --- | --- | --- | --- | --- | --- | --- | --- |
| CC1CCC(NC(=O)CN2CCNCC2)CC1 (stereo not drawn) [N-4-methyl-cyclohexyl-1-piperazinylacetamide] | considerable | – | – | – | – | – | – | – | – | – | – | – | – | – |
| O=C(CN1CCNCC1)NC1CCCCC1 [N-cyclohexyl-1-piperaziniylacetamide] | considerable | – | – | – | – | – | – | – | – | – | – | – | – | – |
| Dihydroxy-aluminate-gluconate of N- cyclohexyl-1-piperazino-acetamide | – | very low | 6668.4 | 6241.9 | 156 | 330 | 150 | 480 | 420 | 350 | 360 | 270 | 420 | ≥ 165 |
